Data on one molecule can be found in patent publication US9822128B1, “Substituted spirooxindoles” (KING SAUD UNIVERSITY, priority 2017, dated 2017).

Assay type in all cases: cell-based, human
For experiment [1], the system named is HCT-116 cells. In words: Wound-healing assay. The note with it: HCT-116, 1 μM, images at 0, 4, 24 and 48 hours, vs DMSO. On the procedure: HCT-116 cells were seeded in 6 well plate as 10*10^4 cells per ml (2 ml in each well) and incubated overnight at 37° C. and 5% CO2. On the second day, a scratch was created in each well by using a sterile P200 tip, and then the medium was replaced with fresh medium containing either DMSO or 1 μM of compound 4d. Photomicrograph images were taken at different time points (0, 4, 24 and 48 hours) to monitor the wound closure. After that, the cells were washed two times with ice-cold 1×PBS and fixed with ice-cold methanol for 20 min at 4° C. The fixed cells were washed two times with 1×PBS and stained with 0.5% crystal violet for 30 min. The extra stain was washed off by dH2O until no color in the washing is observed. The images were captured by Gx microscopes (GXMGXD202 Inverted Microscope) (10× Eyepiece) after staining with crystal violet. The size of the wound was measured by using ImageJ 1.47v software. […] This confirms the ability of compound 4d to enhance tumor suppressor activities.

For experiment [2], the system named is HCT-116 cells. In words: Induction of apoptosis (annexin-V / 7-AAD flow cytometry). The procedure:
The HCT-116 cells were seeded at 5*10^4 cells/mL density in a 6-well plate. The cells were treated with 2 μM 4d for 48 hrs, and the cells were collected after trypsin enzyme treatment and washed two times with ice-cold 1×PBS. The cells were incubated for 2 hours at 4° C. in PBS, then centrifuged and re-suspended in 1× binding buffer. Then 5 μL PE annexin-V and 5 μL 7-amino-actinomycin D (7-AAD) were added to 100 μL of cell suspension and incubated for 15 min at RT in the dark, and then 400 μL of 1× binding buffer was added to the cell suspension and analyzed within 1 hour by BD Accuri™ C6 Plus flow cytometer. The following controls were used to set up the machine: cells unstained with PE annexin V and 7-AAD, cells stained with PE annexin V only, cells stained with 7-AAD only. The level of apoptotic cells, whether in early (+ve annexin-V and −ve PI) or late stage (+ve Annexin-V and +ve PI), was determined. […] The results are shown in FIG. 5A (untreated cells) and FIG. 5B (treated with just 1 μM of compound 4d for 24 hours).
Background: A flow cytometer gives signals particle by particle.

Experiment [3] has as its system PC-3. Kind of experiment: MTT cytotoxicity assay, prostate carcinoma cells. The note with it: for IC50: Homo sapiens, PC-3, MTT, 48 hrs incubation. On the procedure: (§1) The cytotoxic activity of the compounds was tested against different mammalian cancer cells, prostate carcinoma cells (PC-3), hepatocellular carcinoma (HepG2) and colon cancer cells (HCT-116) and against African green monkey kidney cell line (Vero-B). The cell lines were obtained from American Type Culture Collection (ATCC). The cells were cultivated at 37° C. and 10% CO2 in DMEM (Lonza, 12-604F) medium supplemented with 10% fetal bovine serum (FBS, Lonza, Cat. No. 14-801E), 100 IU/ml penicillin and 100 μg/ml streptomycin (Lonza, 17-602E). Cisplatin (cis-diamineplatinum (II) dichloride) was used as a positive control and was obtained from Sigma then dissolved in 0.9% saline then stored as 8 mM stock solution at −20° C. The synthesized compounds were solubilized in DMSO and stored at −20° C. 0.5% crystal violet was prepared in Methanol and was used to stain the viable cells (Feoktistova, Geserick et al. 2016). Crystal violet binds to proteins and DNA in the adherent and viable cells so the stain is an indicator for the viability of the treated cells. The viability of the cells were quantified by using MTT reagent (3-(4,5-dimethylthiazol-2-yl)-2,5-diphenyl tetrazolium bromide), which measure the activity of mitochondrial dehydrogenase in the viable cells (Slater, Sawyer et al. 1963, Mosmann 1983).
(§2) Cytotoxicity was further assayed as follows. The cells were seeded in 96-well plate as 5*10^4 cells/mL (100 μL/well). A serial dilutions of tested compounds or cisplatin (100, 30, 10, 3.3, 1.1 or 0.37 μM) was added after overnight incubation of the cells at 37° C. and 5% CO2. DMSO was used as a control (0.1%). The cells were incubated for 48 hrs. After that, 15 μl of MTT (5 mg/mL PBS) was added to each well and incubated for another 4 hours. The formazan crystals were solubilized by 100 μL acidified SDS solution (10% SDS/0.01 M HCl). The absorbance was measured after 14 hours of incubation at 37° C. and 5% CO2 at 570 nm by Biotech plate reader. Each experiment was repeated three times and standard deviation was calculated (±). IC50% was calculated as the concentration that cause 50% inhibition for cell growth. The growth of the cells were monitored and the images were acquired by Gx microscopes (GXMGXD202 Inverted Microscope) (10× Eyepiece) after staining with crystal violet.
(Tetrazolium dyes change colour on reduction, which living cells bring about.)

The subject of experiment [4] is HCT-116. In words: MTT cytotoxicity assay, colon cancer cells. The note with it: for IC50: Homo sapiens, HCT-116, MTT, 48 hrs incubation. The procedure: as §1, §2

Where two headings read alike, the source gives them in different places.

Consider `O=C(/C=C/c1ccc(Cl)cc1Cl)[C@H]1[C@H](c2ccc(Cl)cc2Cl)[C@H]2CSCN2[C@]12C(=O)Nc1ccccc12` [Compound 4d, (3R,6′S,7′R,7a′S)-7′-(2,4-dichlorophenyl)-6′-((E)-3-(2,4-dichlorophenyl)acryloyl)-1′,6′,7′,7a′-tetrahydro-3′H-spiro[indoline-3,5′-pyrrolo[1,2-c]thiazol]-2-one], for which, in experiment [1], the wound closure entry is “inhibited wound closure”. In addition, in experiment [2] (HCT-116, 1 μM, 24 hours), the induction of apoptosis entry is “could induce the apoptosis”. For the same molecule, the apoptotic cells entry in experiment [2] (HCT-116, 2 μM, 48 hours) is reported as “greatly increased the apoptotic cells”. Also, the IC50 in experiment [3] (read-out: PC-3 (IC50% μM)) was 1.8 ± 0.3 µM; in experiment [3] (read-out: PC-3 (IC50% μg/ml)), 1.1 µg/mL; in experiment [4] (read-out: HCT-116 (IC50% μM)), 1.4 ± 0.6 µM; in experiment [4] (read-out: HCT-116 (IC50% μg/ml)), 0.8 µg/mL. Further, the SI in experiment [3] (Selectivity Index from IC50 normal (VERO-B) and IC50 cancer (PC-3)) stood at 2.778. For the same molecule, the “selectivity index to the cancer cells” value in experiment [4] (broad spectrum, cancer cells) is reported as “greater than 2”.
